Numbers after ± are expanded uncertainties.
Tests used:
[1] = 100 kPa, Liquid; for viscosity: Concentric cylinders viscometry; for mass density: Vibrating tube method
[2] = xn = mol fraction of the nth substance listed; conditions: 100 kPa, Liquid, x2 = 0; for mass density: Vibrating tube method

Compound: CN(C)C=O [dimethylformamide]
- viscosity ([1]; 298.15 K): 0.783 ± 0.047 mPa·s
- mass density ([1]; 298.15 K): 943.92 ± 10 kg/m3
- viscosity ([1]; 308.15 K): 0.699 ± 0.042 mPa·s
- mass density ([1]; 308.15 K): 934.35 ± 10 kg/m3
- viscosity ([1]; 318.15 K): 0.623 ± 0.038 mPa·s
- mass density ([1]; 318.15 K): 924.72 ± 10 kg/m3
- viscosity ([1]; 328.15 K): 0.555 ± 0.034 mPa·s
- mass density ([1]; 328.15 K): 915.06 ± 10 kg/m3
- viscosity ([1]; 338.15 K): 0.495 ± 0.03 mPa·s
- mass density ([1]; 338.15 K): 905.35 ± 10 kg/m3
- mass density ([1]; 348.15 K): 895.57 ± 10 kg/m3

Compound: CN(C)C=O [dimethylformamide] + O=[PH](O)O
- viscosity ([2]; 298.15 K, Concentric cylinders viscometry): 0.783 ± 0.047 mPa·s
- mass density ([2]; 298.15 K): 943.92 ± 10 kg/m3
- viscosity ([2]; 308.15 K, Concentric cylinders viscometry): 0.699 ± 0.042 mPa·s
- mass density ([2]; 308.15 K): 934.35 ± 10 kg/m3
- viscosity ([2]; 318.15 K, Concentric cylinders viscometry): 0.623 ± 0.038 mPa·s
- mass density ([2]; 318.15 K): 924.72 ± 10 kg/m3
- viscosity ([2]; 328.15 K, Concentric cylinders viscometry): 0.555 ± 0.034 mPa·s
- mass density ([2]; 328.15 K): 915.06 ± 10 kg/m3
- viscosity ([2]; 338.15 K, Concentric cylinders viscometry): 0.495 ± 0.03 mPa·s
- mass density ([2]; 338.15 K): 905.35 ± 10 kg/m3
- mass density ([2]; 348.15 K): 895.57 ± 10 kg/m3

Compound: O [water]
- viscosity ([1]; 298.15 K): 0.89 ± 0.054 mPa·s
- viscosity ([1]; 308.15 K): 0.719 ± 0.044 mPa·s
- viscosity ([1]; 318.15 K): 0.596 ± 0.036 mPa·s
- viscosity ([1]; 328.15 K): 0.504 ± 0.031 mPa·s
- mass density ([1]; 328.15 K): 985.69 ± 10 kg/m3
- viscosity ([1]; 338.15 K): 0.434 ± 0.026 mPa·s
- mass density ([1]; 338.15 K): 980.55 ± 10 kg/m3

Compound: O [water] + O=[PH](O)O
- viscosity ([2]; 298.15 K, Capillary tube (Ostwald / Ubbelohde) method): 0.89 ± 0.054 mPa·s
- viscosity ([2]; 308.15 K, Capillary tube (Ostwald / Ubbelohde) method): 0.719 ± 0.043 mPa·s
- viscosity ([2]; 318.15 K, Capillary tube (Ostwald / Ubbelohde) method): 0.596 ± 0.036 mPa·s
- viscosity ([2]; 328.15 K, Capillary tube (Ostwald / Ubbelohde) method): 0.504 ± 0.03 mPa·s
- mass density ([2]; 328.15 K): 985.69 ± 10 kg/m3
- viscosity ([2]; 338.15 K, Capillary tube (Ostwald / Ubbelohde) method): 0.434 ± 0.026 mPa·s
- mass density ([2]; 338.15 K): 980.55 ± 10 kg/m3
